Assays:
[1] = test system: cancer-related stem cells; test: MTT cell viability after chemical treatment, cancer-related stem cells vs non-cancer-related stem cells; format: cell-based, human; conditions: MTT survival fraction; p<0.01
Experimental: Cells were seeded on 24-well plates at a density of 2×10^4 cells/well in medium, after post-chemical therapy 24 hours, then followed and analyzed by the MTT assay (Sigma-Aldrich Co.). The amount of MTT formazon product was determined by measuring the absorbance at 560 nm (SpectraMax 250, Molecular Devices, Sunnyvale, Calif., USA). The drugs for chemotherapy are consisted of visplatin, VP-16, doxorubicin, or paclitaxel.

AT/RT-CD133+ cells [2] = test: MTT assay of cell viability/proliferation in AT/RT-CD133+; format: cell-based, human; parameters: anti-cancer proliferation effect of single agent chemotherapy with addition of RV: dose or concentration left out as unconfirmed; conditions: for resistance of CD133+ to chemotherapeutic agent compared with CD133-: AT/RT cells, p<0.01
Experimental: (§1) This research followed the tenets of the Declaration of Helsinki and all samples were obtained after patients had given informed consent. Dissociated cells from the samples of brain tumors from AT/RT patients were labeled with 1 ml CD133/1 micromagnetic beads per million cells using a CD133 cell isolation kit (MACS, Miltenyi Biotec). CD133^+ cells were cultured in serum-free DMEM/F12 (GIBCO) medium supplemented with N2 supplement (R&D), 10 ng/ml human recombinant bFGF (R&D) and 10 ng/ml EGF. Gamma radiation was delivered by a Theratronic cobalt unit T-1000 (Theratronic Internation, Inc., Ottawa, Canada) at a dose rate of 1.1 Gy/min (SSD=57.5 cm). For evaluation of cell proliferation, cells were seeded on 24-well plates at a density of 2×10^4 cells/well in medium, followed by the methyl thiazol tetrazolium assay (MTT assay; Sigma-Aldrich Co.). The amount of MTT formazan product was determined using a microplate reader and an absorbance of 560 nm (SpectraMax 250, Molecular Devices, Sunnyvale, Calif., USA).

AT/RT CD133- cells = test: MTT assay of proliferation in AT/RT CD133-; format: cell-based, human; parameters: dose or concentration left out as unconfirmed; conditions: RV for 72 h
Experimental: as §1

[3] = test system: AT/RT-CD133+ xenotransplant; test: Xenotransplanted tumorigenicity analysis of AT/RT cells in SCID mice; format: in vivo, SCID mice (BALB/c strain)
Experimental: All procedures involving animals were in accordance with the institutional animal welfare guideline of Taipei Veterans General Hospital. […] Tumor size was measured using calipers and the volume was calculated according to the formula: (length×width^2)/2 and then analyzed using Image Pro-plus software.

ATRT-CD133+ cells = test: Percentage of CD133-positive cells in ATRT-CD133+; format: cell-based, human; parameters: dose or concentration left out as unconfirmed; conditions: RV for 3 days
AT/RT-CD133+ cells [4] = test: Transwell migration/invasion and soft agar colony formation, AT/RT-CD133+; format: cell-based, human; parameters: migration/invasion: dose or concentration left out as unconfirmed; conditions: compared with IR treatment alone
Experimental: (§2) The 24-well plate Transwell® system with a polycarbonate filter membrane of 8-μm pore size (Corning, United Kingdom) was used. Cell suspensions were seeded in the upper compartment of the Transwell® chamber at a density of 1×10^5 cells in 100 μl serum-free medium. After 24 hours, the filter membrane was fixed in 4% formalin for 1 hour. The opposite surface of the filter membrane was stained with Hoechst 33342 for 3 min. The soft agar assay was performed as follows. The bottom of each well (35 mm) of a six-well culture dish was coated with 2 ml agar mixture (DMEM, 10% (v/v) FCS, 0.6% (w/v) agar). After the bottom layer solidified, 2 ml top agar-medium mixture (DMEM, 10% (v/v) FCS, 0.3% (w/v) agar) containing 2×10^4 cells was added, and dishes were incubated at 37° C. for 4 weeks. The plates were stained with 0.5 ml 0.005% Crystal Violet for 1 hour, and then the number of colonies was counted using a microscope.

AT/RT-CD133+/- cells = test: Apoptosis (annexin V, caspase 3, TUNEL) in AT/RT-CD133+/-; format: cell-based, human; parameters: apoptosis induction: dose or concentration left out as unconfirmed
Experimental: The activities of caspases-8 and -3 were determined by ELISA kit (Medical & Biological Laboratories Co., Ltd, Nagoya, Japan) and quantified by reading at 490 nm (MRX; Dynatech Laboratories, Chantilly, Va., U.S.A.). Each individual sample was analyzed in triplicate. Furthermore, apoptotic cells were identified by the terminal dUTP nick-end labeling (TUNEL) method (In situ Cell Death Detection Kit, POD, Roche Boehringer Mannheim Corp., Ind., U.S.A.). Briefly, cells with cover slips were washed with 1× phosphate-buffered saline (PBS), fixed with 4% of paraformaldehyde for 10 min, permeabilized with 0.1% of Triton X-100 for 5 min, and incubated with the TUNEL reagent provided for 1 h. Chromogenic development was then applied using 3-amino-9-ethyl-carbazole, and slides were counterstained using H&E.

[5] = test system: MB-CSCs (medulloblastoma cancer stem-like cells); test: MTT assay of cell viability in MB-CSCs; format: cell-based, human
Experimental: Dissociated cells from the samples of medulloblastoma patients were cultured in serum-free DMEM/F12 (GIBCO) medium supplemented with N2 supplement (R&D), 10 ng/ml human recombinant bFGF (R&D) and 10 ng/ml EGF. Gamma radiation was delivered by a Theratronic cobalt unit T-1000 (Theratronic Internation, Inc., Ottawa, Canada) at a dose rate of 1.1 Gy/min (SSD=57.5 cm). For evaluation of cell proliferation, cells were seeded on 24-well plates at a density of 2×10^4 cells/well in medium, followed by the methyl thiazol tetrazolium assay (MTT assay; Sigma-Aldrich Co.).

parental MB cells = test: MTT assay of cell viability in parental MB cells; format: cell-based, human; conditions: 50 μM RV, serum-condition culture
Experimental: Gamma radiation was delivered by a Theratronic cobalt unit T-1000 (Theratronic Internation, Inc., Ottawa, Canada) at a dose rate of 1.1 Gy/min (SSD=57.5 cm). For evaluation of cell proliferation, cells were seeded on 24-well plates at a density of 2×10^4 cells/well in medium, followed by the methyl thiazol tetrazolium assay (MTT assay; Sigma-Aldrich Co.).

MB-CSCs = test: Migration/invasion and tumor colony formation, MB-CSCs; format: cell-based, human; conditions: 100 μM RV alone or combined with 2 Gy IR, compared with IR (2 Gy) alone
Experimental: as §2

iPS and ES cells = test: Osteogenic differentiation of iPS and ES cells (Alizarin red, real-time RT-PCR); format: cell-based
Experimental: For osteogenic induction, ES or iPS cells were cultured in DMEM-LG (Invitrogen) supplemented with 50 μg·ml^−1 ascorbate-2 phosphate, 10 nmol·L^−1 dexamethasone, and 10 mmol·L^−1 β-glycerophosphate (Sigma, St. Louis, Mo.) for 2 weeks. At the end of osteogenic induction, cells were washed twice with PBS, fixed for 10 min at room temperature with 3.7% paraformaldehyde, and stained with von Kossa stain and Alizarin red to assess osteogenic differentiation.
Real-time RT-PCR was performed as previously described. Briefly, total RNA (1 μg) of each sample was reverse-transcribed using 0.5 μg oligo dT and 200 U Superscript II RT (Invitrogen). The amplification was carried out in a total volume of 20 μl containing 0.5 μmol·L^−1 of each primer, 4 mmol·L^−1 MgCl2, 2 μl LightCycler™-FastStart DNA Master SYBR green I (Roche Molecular Systems, Alameda, Calif.) and 2 μl of 1:10 diluted cDNA. PCR reactions were prepared in duplicate and performed using the following program: 95° C. for 10 min, followed by 40 cycles of denaturation at 95° C. for 10 sec. annealing at 55° C. for 5 sec. and extension at 72° C. for 20 sec. Standard curves (cycle threshold values versus template concentration) were prepared for each target gene and for the endogenous reference gene (GAPDH) for each sample. Quantification of unknown samples was performed using LightCycler Relative Quantification Software version 3.3 (Roche).

transplanted iPS cells = test: In vivo osteogenic differentiation and teratoma formation of iPS cells transplanted to nude mice; parameters: species or system nude mice (BALB/c strain)

In the case of `COc1cccc2c1C(=O)c1c(O)c3c(c(O)c1C2=O)C[C@@](O)(C(=O)CO)C[C@@H]3O[C@H]1C[C@H](N)[C@H](O)[C@H](C)O1` [doxorubicin], the “resistance of cancer-related stem cell to chemotherapeutic agent compared with non-cancer-related stem cell” value [1] is reported as “significantly resistant” and the “resistance of CD133+ to chemotherapeutic agent compared with CD133-” value (“resistance of CD133+ … compared with CD133-” below) (AT/RT-CD133+ cells [2]) is reported as “significantly resistant”.

With `Oc1ccc(/C=C/c2cc(O)cc(O)c2)cc1` [resveratrol, 3,4′,5-tri-hydroxy-trans-stilbene] the “total number and growth rates of CD133+” value (AT/RT-CD133+ cells [2]; 200 mM RV for 48 and 72 h) was “significantly decreased”, the “morphology of spheroidlike CD133+” value (AT/RT-CD133+ cells [2]; 200 mM RV, 48 h) was “detached from clusters and became a single suspension” and the “reduction of viability of CD133+” value (AT/RT-CD133+ cells [2]; RV 100 mM) was 20-25%. The “anti-cancer proliferation effect of single agent chemotherapy with addition of RV” value (AT/RT-CD133+ cells [2]; RV added to cisplatin, VP-16, ATRT-CD133+/-) was “significantly improved”, the “reduction of viability of CD133+” value (AT/RT-CD133+ cells [2]; RV for 72 h) was “about 40%” and the cell viability (AT/RT-CD133+ cells [2]; RV lower than 50 mM, 24, 48, and 72 h, p>0.05) was “not significantly affected”. For the same compound, the “proliferation and growth of CD133-” value (AT/RT CD133- cells) was “totally block”, the “tumor formation in transplanted SCID mice” value ([3]; 1,000 AT/RT-CD133+ treated with 200 mM RV for 72 h, within 6 weeks after inoculation) was “did not form tumors” and the “mean survival times (Kaplan-Meier)” value ([3]; CD133+ and 150 mM RV/IR vs untreated or only IR-treated CD133+, p<0.01) was “significantly prolonged”. For the same compound, the tumor volumes ([3]; CD133+ treated by RV/IR vs CD133+ or CD133+ treated with only IR, p<0.01) was “significantly decreased”, the tumor formation ([3]; RV-treated CD133- group) was “no tumor formation” and the “percentage of CD133-positive cells in ATRT-CD133+” value (ATRT-CD133+ cells) was “decrease”. For the same compound, the tumor colony formation (AT/RT-CD133+ cells [4]; 150 mM RV alone or combined with IR) was “significantly inhibited”, the migration/invasion (AT/RT-CD133+ cells [4]; RV alone or combined with IR) was “significantly inhibited” and the “IR (2 Gy)-mediated apoptotic activity” value (AT/RT-CD133+/- cells; RV plus IR 2 Gy, TUNEL) was “increase”. For the same compound, the apoptosis induction (AT/RT-CD133+/- cells; RV, 72 h, annexin V, caspase 3, TUNEL) was “induce apoptosis”, the “morphology of spheroid-like MB-CSCs” value ([5]; 100 μM RV, 48 hours) was “detached and became a single-suspension” and the “treatment effect of IR-2 Gy on MB-CSCs with addition of RV” value ([5]; 100 μM RV, p<0.01) was “significantly improved”. For the same compound, the “total cell number and growth rates of MB-CSCs” value ([5]; 150 μM RV for 48 h, p<0.001) was “significantly decreased”, the “reduction of viability of MB-CSCs” value ([5]; RV 100 μM) was 40-45% and the “cell viability of MB-CSC” value ([5]; RV lower than 50 μM, 48 hours, p>0.05) was “not significantly affected”. For the same compound, the “cell viability of parental MB cells” value (parental MB cells) was “moderately affected”, the migration/invasion (MB-CSCs) was “significantly inhibited” and the tumor colony formation (MB-CSCs) was “significantly inhibited”. For the same compound, the “calcium accumulation / mineralization (Alizarin red staining)” value (iPS and ES cells; 20 μmol·L^−1 resveratrol in osteogenic medium, 14 days) was “significantly increased”, the “expression of Runx2, OPN and IBSP” value (iPS and ES cells; 20 μmol·L^−1 resveratrol, 7 or 14 days of induction, vs without resveratrol) was “significantly higher” and the “expression of Oct-4, Nanog, Klf-4, and C-Myc in grafts (quantitative RT-PCR)” value (transplanted iPS cells; osteogenic medium-treated iPS cells, mice fed with resveratrol, six weeks) was “significantly suppressed”. The “teratoma-like formation in grafts” value (transplanted iPS cells; osteogenic medium-treated iPS cells, resveratrol 7.5 μg/ml in drinking water, six weeks) was “No teratoma-like formation” and the “expression of OPN in grafts (immunofluorescence)” value (transplanted iPS cells; resveratrol 7.5 μg/ml in drinking water daily, six weeks after transplantation, vs vehicle) was “significantly higher”.

In the case of `N.N.[Cl][Pt][Cl]` [cisplatin], the “resistance of cancer-related stem cell to chemotherapeutic agent compared with non-cancer-related stem cell” value [1] is reported as “significantly resistant” and the “resistance of CD133+ … compared with CD133-” value (AT/RT-CD133+ cells [2]) is reported as “significantly resistant”.

`COc1cc([C@@H]2c3cc4c(cc3[C@@H](O[C@@H]3O[C@@H]5CO[C@@H](C)O[C@H]5[C@H](O)[C@H]3O)[C@H]3COC(=O)[C@H]23)OCO4)cc(OC)c1O` [VP16, etoposide] was tested, and the “resistance of cancer-related stem cell to chemotherapeutic agent compared with non-cancer-related stem cell” value [1] was “significantly resistant” and the “resistance of CD133+ … compared with CD133-” value (AT/RT-CD133+ cells [2]) was “significantly resistant”.

For `CC(=O)O[C@H]1C(=O)[C@@]2(C)[C@H]([C@H](OC(=O)c3ccccc3)[C@]3(O)C[C@H](OC(=O)[C@H](O)[C@@H](NC(=O)c4ccccc4)c4ccccc4)C(C)=C1C3(C)C)[C@]1(OC(C)=O)CO[C@@H]1C[C@@H]2O` [paclitaxel], the “resistance of cancer-related stem cell to chemotherapeutic agent compared with non-cancer-related stem cell” value [1] was “significantly resistant”.

Reference: US8183297B2 (Taipei Veterans General Hospital, priority 2008, dated 2012)
